Calls of active or inactive are those of the source. The calls are words filed in the database; no cut-off is given here.
Key:
[1] = Microsomal stability in rat liver microsome assessed as half life; format: ADME; conditions: liver microsomes
[2] = target: 5'-AMP-activated protein kinase; assay: Activation of AMPK in mouse C2C12 cells incubated for 2 hrs; format: cell-based
[3] = Activation of AMPK in human HepG2 cells incubated for 2 hrs; format: cell-based; conditions: HepG2, 2 h
[4] = Microsomal stability in human liver microsome assessed as half life; format: ADME, microsomes; conditions: for half-life: liver microsomes
HepG2 = assay: Inhibition of mitochondrial function in human HepG2 cells assessed as reduction in ATP production; format: functional, cell-based
[5] = Dissociation constant, pKa of compound; format: physicochemical
Cytochrome P450 3A4 [6] = target: T1, Cytochrome P450 3A4 (Homo sapiens, UniProt P08684); assay: Inhibition of CYP3A4 (unknown origin) in presence of NADPH; format: ADME
Cytochrome P450 3A4 [7] = target: T1, Cytochrome P450 3A4; assay: Inhibition of CYP3A4 (unknown origin); format: ADME
hERG (KCNH2) = hERG (KCNH2) (Homo sapiens, UniProt Q12809); assay: Inhibition of hERG at 10 uM relative to control; format: toxicity
[8] = Clearance in rat; format: ADME; conditions: in vivo
[9] = target: Voltage-gated inwardly rectifying potassium channel KCNH2 (Homo sapiens, UniProt Q12809); assay: Inhibition of hERG; format: toxicity
Mus musculus [10] = assay: Antidiabetic activity against db/db mouse model of type 2 diabetes assessed as reduction in blood glucose AUC at 15 mg/kg, po administered for 15 days and measured on day 13 by OGTT test; format: functional, organism-based; conditions: time 13.0 day
[11] = Drug concentration in C57BL/6J mouse plasma at 10 mg/kg, po measured at 30 mins; format: ADME, organism-based
Mus musculus [12] = assay: In vivo activation of AMPK in C57BL/6J mouse assessed as increase in AMPK phosphorylation in liver at 10 mg/kg, po measured for 30 mins by Western blot analysis; format: functional, organism-based
Mus musculus [13] = assay: Antidiabetic activity against po dosed db/db mouse model of type 2 diabetes assessed as reduction in insulin level administered for 15 days by OGTT test; format: functional, organism-based; conditions: dose 10-15 mg/kg, time 15.0 day
Mus musculus [14] = assay: Antidiabetic activity against po dosed db/db mouse model of type 2 diabetes assessed as improvement in glucose handling administered for 15 days and measured on day 13 by OGTT test; format: functional, organism-based; conditions: dose 10-15 mg/kg, time 13.0 day
NCI-H1299 = assay: Cytotoxicity against human NCI-H1299 cells assessed as reduction in cell growth; format: functional, cell-based
[15] = Volume of distribution at steady state in rat at 5 mg/kg, po or 1 mg/kg, iv measured upto 10 hrs; format: ADME, organism-based; conditions: in vivo
[16] = AUC in rat at 5 mg/kg, po measured upto 10 hrs; format: ADME, organism-based; parameters: time < 10 hrs, dose 5 mg/kg, route po; conditions: in vivo
Mus musculus [17] = assay: Antidiabetic activity against po dosed db/db mouse model of type 2 diabetes assessed as reduction in blood glucose level administered for 15 days by OGTT test; format: functional, organism-based; conditions: dose 10-15 mg/kg, time 15.0 day
Mus musculus [18] = assay: In vivo activation of AMPK in C57BL/6J mouse assessed as increase ACC substrate level in liver at 10 mg/kg, po measured for 30 mins by Western blot analysis; format: functional, organism-based
[19] = Oral bioavailability in rat at 5 mg/kg measured upto 10 hrs; format: ADME, organism-based; conditions: in vivo
[20] = Half life in rat at 5 mg/kg, po or 1 mg/kg, iv measured upto 10 hrs; format: ADME, organism-based; conditions: in vivo
A549 = assay: Cytotoxicity against human A549 cells assessed as reduction in cell growth; format: functional, cell-based

Sequence of hERG (KCNH2) (Q12809 whole entry): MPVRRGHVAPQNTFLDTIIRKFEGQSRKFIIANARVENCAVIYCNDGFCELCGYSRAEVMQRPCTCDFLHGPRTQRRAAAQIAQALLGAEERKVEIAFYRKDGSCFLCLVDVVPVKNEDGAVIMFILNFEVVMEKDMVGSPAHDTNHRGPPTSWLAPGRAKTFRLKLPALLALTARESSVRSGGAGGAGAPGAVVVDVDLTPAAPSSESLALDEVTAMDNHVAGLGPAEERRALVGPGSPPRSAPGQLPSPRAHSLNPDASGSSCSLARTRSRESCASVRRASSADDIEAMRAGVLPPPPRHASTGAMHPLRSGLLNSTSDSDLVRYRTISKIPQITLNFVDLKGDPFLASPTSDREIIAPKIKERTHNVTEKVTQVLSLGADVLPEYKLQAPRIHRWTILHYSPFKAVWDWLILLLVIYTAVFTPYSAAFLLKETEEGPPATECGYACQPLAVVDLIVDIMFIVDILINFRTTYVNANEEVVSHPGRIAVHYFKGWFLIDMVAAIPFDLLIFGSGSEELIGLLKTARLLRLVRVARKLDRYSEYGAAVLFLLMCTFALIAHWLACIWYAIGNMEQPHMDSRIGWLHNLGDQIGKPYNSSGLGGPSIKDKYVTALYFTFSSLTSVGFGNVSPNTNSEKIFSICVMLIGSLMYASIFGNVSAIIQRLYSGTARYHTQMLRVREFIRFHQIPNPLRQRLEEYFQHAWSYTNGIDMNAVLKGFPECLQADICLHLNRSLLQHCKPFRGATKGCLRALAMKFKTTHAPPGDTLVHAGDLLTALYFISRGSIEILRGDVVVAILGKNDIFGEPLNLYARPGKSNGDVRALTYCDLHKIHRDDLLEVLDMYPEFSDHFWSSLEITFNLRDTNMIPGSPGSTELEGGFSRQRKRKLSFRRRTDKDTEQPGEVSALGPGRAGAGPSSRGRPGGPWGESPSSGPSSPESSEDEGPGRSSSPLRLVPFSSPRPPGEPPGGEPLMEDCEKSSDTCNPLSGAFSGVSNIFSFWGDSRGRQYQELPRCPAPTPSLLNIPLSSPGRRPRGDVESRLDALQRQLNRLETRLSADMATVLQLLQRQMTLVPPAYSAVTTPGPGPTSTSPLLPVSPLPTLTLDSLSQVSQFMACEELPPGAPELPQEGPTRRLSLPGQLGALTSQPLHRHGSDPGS
T1 sequence (P08684 whole entry): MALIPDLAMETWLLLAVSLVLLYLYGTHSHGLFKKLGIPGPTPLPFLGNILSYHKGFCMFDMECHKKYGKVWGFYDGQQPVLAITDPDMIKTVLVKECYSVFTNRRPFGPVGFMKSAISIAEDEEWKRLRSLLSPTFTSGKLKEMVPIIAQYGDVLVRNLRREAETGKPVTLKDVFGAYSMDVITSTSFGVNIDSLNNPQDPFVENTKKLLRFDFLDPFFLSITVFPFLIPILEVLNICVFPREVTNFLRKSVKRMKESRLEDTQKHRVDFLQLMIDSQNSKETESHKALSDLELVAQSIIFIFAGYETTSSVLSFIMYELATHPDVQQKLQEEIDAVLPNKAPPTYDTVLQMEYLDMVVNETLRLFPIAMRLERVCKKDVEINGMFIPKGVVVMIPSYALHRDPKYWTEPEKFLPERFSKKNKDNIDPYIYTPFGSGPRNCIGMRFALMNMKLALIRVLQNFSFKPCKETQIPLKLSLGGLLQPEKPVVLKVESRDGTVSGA
Sequence of Voltage-gated inwardly rectifying potassium channel KCNH2 (Q12809 whole entry): as the sequence (Q12809 whole entry) above

SMILES | half-life [1] [h] | EC50 [2] [nM] | EC50 [3] [nM] | half-life [4] [h] | IC50 (HepG2) [nM] | IC50 (Cytochrome P450 3A4 [6]) [nM] | IC50 (Cytochrome P450 3A4 [7]) [nM] | inhibition at 10 µM (hERG (KCNH2)) [%] | clearance [8] [mL/min/kg] | also measured
N#Cc1ccc(CN2CC[C@H](NC(=O)c3ccc(C(=O)N4CCC(C(=O)c5ccc(N6CCOCC6)cc5)CC4)nc3)[C@@H](F)C2)cc1 | 1.22 | 217 | 70 | 2.63 | 2690 | – | – | – | – | –
COc1ccc(C(=O)C2CCN(C(=O)c3ccc(C(=O)NC4CCN(Cc5ccc(C#N)cc5)CC4(F)F)cn3)CC2)cc1 (centres undefined) | 2.48 | 50 | 28 | 1.23 | 256 | > 10000 | > 10000 | 65 | – | pKa [5]: 2.5
COc1ccc(C(=O)C2CCN(C(=O)c3cc(C)c(C(=O)NC4CCN(Cc5ccc(C#N)cc5)CC4)cn3)CC2)cc1 | 0.7 | 110 | 22 | 1.72 | 1460 | > 10000 | > 10000 | 59.8 | 38 | –
COc1ccc(C(=O)C2CCN(C(=O)c3ccc(C(=O)N(C)C4CCN(Cc5ccc(C#N)cc5)CC4)cn3)CC2)cc1 | – | – | 21 | – | 28 | – | – | – | 74 | –
COc1ccc(C(=O)C2CCN(C(=O)c3ccc(C(=O)NC4CCN(Cc5ccc(C#N)cc5)CC4(C)C)cn3)CC2)cc1 (centres undefined) | – | 598 | 32 | – | 390 | – | – | – | 40 | –
N#Cc1ccc(CN2CC[C@H](NC(=O)c3ccc(C(=O)N4CCC(C(=O)c5ccc(-n6cccn6)cc5)CC4)nc3)[C@@H](F)C2)cc1 | 1.75 | 87 | 29 | – | 887 | – | – | 98.4 | 19 | Stability ([4]; microsomes): Stable
COc1ccc(C(=O)C2CCN(C(=O)c3cc(C(F)(F)F)c(C(=O)NC4CCN(Cc5ccc(C#N)cc5)CC4)cn3)CC2)cc1 | 0.733 | 28 | 10 | 1.48 | 456 | 2800 | > 10000 | – | 35 | –
COc1ccc(C(=O)C2CCN(C(=O)c3ccc(C(=O)N[C@@H]4CCN(Cc5ccc(C#N)cc5)C[C@@H]4C(F)(F)F)cn3)CC2)cc1 | – | 143 | 17 | – | 466 | – | – | – | 62 | –
COc1ccc(C(=O)C2CCN(C(=O)c3ccc(C(=O)N[C@H]4CCN(Cc5ccc(C#N)cc5)C[C@@H]4C)cn3)CC2)cc1 | – | 236 | 65 | – | 983 | – | – | – | 145 | –
COc1ccc(CN2CCC(NC(=O)c3cnc(C(=O)N4CCC(C(=O)c5ccc(OC)cc5)CC4)cc3C)CC2)cc1 | 0.917 | 84 | 25 | 4.72 | 3370 | – | – | 62.5 | 40 | –
COc1ccc(C(=O)C2CCN(C(=O)c3ccc(C(=O)NC4CCN(Cc5ccc(C#N)cc5)CC4)cn3)CC2)cc1 | – | 137 | 31 | – | 2820 | > 10000 | > 10000 | – | 150 | IC50 [9]: 4700 nM; pKa [5]: 7.4
COc1ccc(C(=O)C2CCN(C(=O)c3ccc(C(=O)N[C@@H]4CCN(Cc5ccc(C#N)cc5)C[C@@H]4F)cn3)CC2)cc1 | 4.95 | 193 | 47 | 8.23 | 800 | > 10000 | > 10000 | 67.4 | 33 | pKa [5]: 4.9
COCCN(C(=O)c1ccc(C(=O)N2CCC(C(=O)c3ccc(OC)cc3)CC2)nc1)C1CCN(Cc2ccc(C#N)cc2)CC1 | – | 654 | 78 | – | 1470 | – | – | 26.5 | – | –
COc1ccc(C(=O)C2CCN(C(=O)c3ccc(C(=O)N[C@@H]4CCN(Cc5ccc(C#N)cc5)C[C@@H]4C)cn3)CC2)cc1 | 0.15 | 82 | 22 | 0.383 | 941 | 900 | 10000 | 46.9 | – | –
COc1ccc(C(=O)C2CCN(C(=O)c3cc(C)c(C(=O)NC4CCN(Cc5ccc(OC)c(F)c5)CC4)cn3)CC2)cc1 | 0.9 | 27 | 14 | 1.12 | 976 | – | – | 58.4 | 33 | –
COc1ccc(C(=O)C2CCN(C(=O)c3cc(F)c(C(=O)NC4CCN(Cc5ccc(C#N)cc5)CC4)cn3)CC2)cc1 | – | 9 | 1 | – | 31 | – | – | – | – | –
COc1ccc(C(=O)C2CCN(C(=O)c3ccc(C(=O)N[C@H]4CCN(Cc5ccc(C#N)cc5)C[C@@H]4F)cn3)CC2)cc1 (relative stereo) | 1.47 | 161 | 62 | 1.9 | 1170 | > 10000 | > 10000 | 69.2 | 17 | Activity (Mus musculus [10]): Active; concentration at 0.5 h [11]: 638 ng/mL; Activity (Mus musculus [12]): Active; Activity (Mus musculus [13]): Dose-Dependent Effect; Activity (Mus musculus [14]): Dose-Dependent Effect; IC50 (NCI-H1299): > 20000 nM; Vdss [15]: 2.2 L/kg; AUC at 10 h [16]: 2350 ng·h/mL; Activity (Mus musculus [17]): Dose-Dependent Effect; pKa [5]: 4.9; Activity (Mus musculus [18]): Active; bioavailability [19]: 55%; half-life [20]: 3.1 h; IC50 (A549): > 20000 nM
COc1ccc(C(=O)C2CCN(C(=O)c3ccc(C(=O)N[C@H]4CCN(Cc5ccc(C#N)cc5)[C@H](C(F)(F)F)C4)cn3)CC2)cc1 | – | – | 464 | – | – | – | – | – | – | –

Source: ChEMBL document CHEMBL5375990, “Optimization of Pharmacokinetic and In Vitro Safety Profile of a Series of Pyridine Diamide Indirect AMPK Activators” (J Med Chem, 2023)
